In patent US20060069132A1, “Azolecarboxamide herbicides” (priority 2004, published 2006):

Tests used:
bermudagrass = assay: Test C pre-/postemergence herbicide test; format: in vivo, Cynodon dactylon
Excerpt: (§1) Seeds of plant species selected from bermudagrass (Cynodon dactylon (L.) Pers.), Surinam grass (Urochloa decumbens (Staph) R. D. Webster, previously named Brachiaria decumbens Stapf), cocklebur (Xanthium strumarium L.), corn (Zea mays L.), large crabgrass (Digitaria sanguinalis (L.) Scop.), woolly cupgrass (Eriochloa villosa (Thunb.) Kunth), giant foxtail (Setaria faberi Herrm.), goosegrass (Eleusine indica (L.) Gaertn.), johnsongrass (Sorghum halepense (L.) Pers.), kochia (Kochia scoparia (L.) Schrad.), lambsquarters (Chenopodium album L.), morningglory (Ipomoea coccinea L.), eastern black nightshade (Solanum ptycanthum Dunal), yellow nutsedge (Cyperus esculentus L.), pigweed (Amaranthus retroflexus L.), common ragweed (Ambrosia elatior L.), soybean (Glycine max (L.) Merr.), common (oilseed) sunflower (Helianthus annuus L.) and velvetleaf (Abutilon theophrasti Medik.) were planted and treated preemergence with test chemicals formulated in a non-phytotoxic solvent mixture which included a surfactant.
(§2) At the same time, plants selected from these crop and weed species and also winter barley (Hordeum vulgare L.), blackgrass (Alopecurus myosuroides Huds.), canarygrass (Phalaris minor Retz.), chickweed (Stellaria media (L.) Vill.), downy bromegrass (Bromus tectorum L.), green foxtail (Setaria viridis (L.) Beauv.), Italian ryegrass (Lolium multiflorum Lam.), wheat (Triticum aestivum L.), wild oat (Avenafatua L.) and windgrass (Apera spica-venti (L.) Beauv.) were treated with postemergence applications of some of the test chemicals formulated in the same manner. Plants ranged in height from 2 to 18 cm (1- to 4-leaf stage) for postemergence treatments. Plant species in the flooded paddy test consisted of rice (Oryza sativa), smallflower umbrella sedge (Cyperus difformis L.), ducksalad (Heteranthera limosa (Sw.) Willd.) and barnyardgrass (Echinochloa crus-galli (L.) Beauv.) grown to the 2-leaf stage for testing. Treated plants and controls were maintained in a greenhouse for 12 to 14 days, after which time all species were compared to controls and visually evaluated. Plant response ratings, summarized in Table C, are based on a scale of 0 to 100 where 0 is no effect and 100 is complete control. A dash (-) response means no test result.

velvetleaf = assay: Test C pre-/postemergence herbicide test; format: in vivo, Abutilon theophrasti
Excerpt: as §1, §2

yellow nutsedge = assay: Test C pre-/postemergence herbicide test; format: in vivo, Cyperus esculentus
Excerpt: as §1, §2

woolly cupgrass = assay: Test C pre-/postemergence herbicide test; format: in vivo, Eriochloa villosa
Excerpt: as §1, §2

giant foxtail = assay: Test C pre-/postemergence herbicide test; format: in vivo, Setaria faberi
Excerpt: as §1, §2

morningglory = assay: Test A pre-/postemergence herbicide test; format: in vivo, Ipomoea spp.
In short: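 Seeds sown in sandy loam received a preemergence directed soil spray of compound in non-phytotoxic solvent with surfactant; postemergence plants (2–10 cm, one- to two-leaf stage) were sprayed to runoff at the same time. After ~10 days in greenhouse, injury was rated visually versus untreated controls (0 = no effect, 100 = complete control).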

[1] = Postemergence, 250 g ai/ha, scale 0 to 100, 0 no effect, 100 complete control
[2] = postemergence, 125 g ai/ha, scale 0 to 100
[3] = postemergence, 62 g ai/ha, scale 0 to 100
[4] = Postemergence, 500 g ai/ha, scale 0 to 100, 0 no effect, 100 complete control

CCn1nc(C(C)(C)C)cc1C(=O)Nc1cc(OC(F)(F)F)ccc1F [Compound 338]
10: Plant response rating, Foxtail, Giant (giant foxtail; [1]) | Plant response rating, Foxtail, Giant (giant foxtail; [4]) | Morningglory plant response rating (morningglory; preemergence, 500 g ai/ha, visual injury, 0 to 100 scale (0 no effect, 100 complete control))
0: Plant response rating, Bermudagrass (bermudagrass; [1]) | Plant response rating, Bermudagrass (bermudagrass; [2]) | Plant response rating, Bermudagrass (bermudagrass; [3]) | Plant response rating, Velvetleaf (velvetleaf; [2]) | Plant response rating, Velvetleaf (velvetleaf; [3]) | Plant response rating, Nutsedge, Yellow (yellow nutsedge; [1]) | Plant response rating, Nutsedge, Yellow (yellow nutsedge; [4]) | Plant response rating, Nutsedge, Yellow (yellow nutsedge; [2]) | Plant response rating, Nutsedge, Yellow (yellow nutsedge; [3]) | Plant response rating, Cupgrass, Woolly (woolly cupgrass; [1]) | Plant response rating, Cupgrass, Woolly (woolly cupgrass; [4]) | Plant response rating, Cupgrass, Woolly (woolly cupgrass; [2]) | Plant response rating, Cupgrass, Woolly (woolly cupgrass; [3])
25: Morningglory plant response rating (morningglory; Postemergence, 500 g ai/ha, 0 to 100 scale, 0 no effect, 100 complete control)
40: Plant response rating, Velvetleaf (velvetleaf; [1]) | Morningglory plant response rating (morningglory; Preemergence, 2000 g ai/ha, visual rating, 0 to 100 scale (0 no effect, 100 complete control))
80: Plant response rating, Velvetleaf (velvetleaf; [4])
5: Bermudagrass plant response rating (bermudagrass; Postemergence, 500 g ai/ha, scale 0 to 100) | Plant response rating, Foxtail, Giant (giant foxtail; [2]) | Plant response rating, Foxtail, Giant (giant foxtail; [3])
70: Plant response rating, Morningglory (morningglory; Postemergence, 2000 g ai/ha, 0 to 100 scale, 0 no effect, 100 complete control)
